This passage reports IC50 results from patent publication US20230117470A1, “SUBSTITUTED PYRAZOLE COMPOUNDS AS TOLL RECEPTOR INHIBITORS” (BRISTOL-MYERS SQUIBB COMPANY, priority 2019, published 2023).

Molecules are shown by their SMILES.

What all share (format): cell-based
One experiment addresses T1, human TLR7 (Homo sapiens, UniProt Q9NYK1).
T1 construct: host or cells: HEK-Blue cells
T1 sequence (Q9NYK1 27-1049): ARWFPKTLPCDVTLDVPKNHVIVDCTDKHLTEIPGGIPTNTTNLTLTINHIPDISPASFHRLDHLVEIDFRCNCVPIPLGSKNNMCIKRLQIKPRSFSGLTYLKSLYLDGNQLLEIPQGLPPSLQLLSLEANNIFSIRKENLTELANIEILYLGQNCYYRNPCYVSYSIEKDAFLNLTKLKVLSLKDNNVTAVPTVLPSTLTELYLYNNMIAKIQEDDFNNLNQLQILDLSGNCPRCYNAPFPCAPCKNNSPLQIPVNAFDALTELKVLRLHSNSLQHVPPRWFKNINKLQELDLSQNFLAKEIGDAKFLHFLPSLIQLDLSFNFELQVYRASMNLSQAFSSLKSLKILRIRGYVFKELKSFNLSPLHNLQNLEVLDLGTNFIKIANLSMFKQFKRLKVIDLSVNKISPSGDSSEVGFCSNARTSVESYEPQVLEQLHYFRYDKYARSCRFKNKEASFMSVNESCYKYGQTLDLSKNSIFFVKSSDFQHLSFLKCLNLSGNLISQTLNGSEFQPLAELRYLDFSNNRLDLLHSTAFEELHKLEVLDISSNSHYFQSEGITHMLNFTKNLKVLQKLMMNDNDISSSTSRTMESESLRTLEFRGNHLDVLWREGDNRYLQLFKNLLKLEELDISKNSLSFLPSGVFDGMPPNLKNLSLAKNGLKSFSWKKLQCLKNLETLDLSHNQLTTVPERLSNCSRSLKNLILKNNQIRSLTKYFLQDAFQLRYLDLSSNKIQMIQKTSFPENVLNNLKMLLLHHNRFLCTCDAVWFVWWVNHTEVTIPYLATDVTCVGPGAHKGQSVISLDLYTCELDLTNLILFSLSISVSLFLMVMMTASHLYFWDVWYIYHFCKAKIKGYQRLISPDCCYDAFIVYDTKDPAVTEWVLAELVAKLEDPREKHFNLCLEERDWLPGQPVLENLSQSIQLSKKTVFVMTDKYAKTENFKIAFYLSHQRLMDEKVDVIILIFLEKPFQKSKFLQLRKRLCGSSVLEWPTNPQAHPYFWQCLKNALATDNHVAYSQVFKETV
The experiment is described as follows: TLR7 inhibition reporter assay (HEK-Blue cells, SEAP reporter, gardiquimod stimulation). To be noted: HEK-Blue cells overexpressing human TLR7, SEAP reporter, gardiquimod 7.5 μM. The method, boiled down: (§1)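 30 min RT cpd pre-incubation (0.05 nM–50 μM final dose response) → agonist: gardiquimod 7.5 μM / R848 15.9 μM / ODN2006 5 nM for TLR7/8/9 resp. → 22 h, 37° C → SEAP via detection medium. % inhibition vs agonist+DMSO and reference inhibitor controls.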

In another experiment the target is T2, human TLR8 (Homo sapiens, UniProt Q9NR97).
T2 construct: host or cells: HEK-Blue cells
T2 sequence (Q9NR97 27-1041): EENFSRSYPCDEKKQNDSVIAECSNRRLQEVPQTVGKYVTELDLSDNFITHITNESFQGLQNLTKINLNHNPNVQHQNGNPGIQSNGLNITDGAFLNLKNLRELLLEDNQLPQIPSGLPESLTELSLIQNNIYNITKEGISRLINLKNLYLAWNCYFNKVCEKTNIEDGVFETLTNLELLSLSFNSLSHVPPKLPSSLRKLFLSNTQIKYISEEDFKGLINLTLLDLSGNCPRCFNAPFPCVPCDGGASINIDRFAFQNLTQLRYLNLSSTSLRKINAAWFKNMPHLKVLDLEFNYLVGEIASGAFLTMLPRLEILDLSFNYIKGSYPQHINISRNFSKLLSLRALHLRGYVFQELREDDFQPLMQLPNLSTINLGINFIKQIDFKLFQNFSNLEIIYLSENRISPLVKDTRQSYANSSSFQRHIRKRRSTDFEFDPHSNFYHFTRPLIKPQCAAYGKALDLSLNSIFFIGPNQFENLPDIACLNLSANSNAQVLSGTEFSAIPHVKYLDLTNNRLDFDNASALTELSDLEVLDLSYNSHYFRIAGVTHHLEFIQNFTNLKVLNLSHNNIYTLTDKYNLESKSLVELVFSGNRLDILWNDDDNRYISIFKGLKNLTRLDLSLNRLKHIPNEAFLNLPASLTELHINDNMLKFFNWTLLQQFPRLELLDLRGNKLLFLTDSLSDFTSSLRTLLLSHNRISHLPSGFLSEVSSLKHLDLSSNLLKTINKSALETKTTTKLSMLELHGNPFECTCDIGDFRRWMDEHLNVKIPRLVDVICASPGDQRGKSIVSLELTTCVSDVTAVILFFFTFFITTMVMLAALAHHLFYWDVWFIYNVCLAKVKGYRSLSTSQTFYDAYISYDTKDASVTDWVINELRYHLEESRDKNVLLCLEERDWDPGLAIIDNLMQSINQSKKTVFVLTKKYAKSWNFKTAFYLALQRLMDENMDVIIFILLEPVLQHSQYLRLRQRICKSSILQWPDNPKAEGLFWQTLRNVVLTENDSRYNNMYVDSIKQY
The experiment is described as follows: TLR8 inhibition reporter assay (HEK-Blue cells, SEAP reporter, R848 stimulation). The settings on record: HEK-Blue cells overexpressing human TLR8, SEAP reporter, R848 15.9 μM. A digest of the protocol:
as §1

In a further experiment the target is T3, human TLR9 (Homo sapiens, UniProt Q9NR96).
T3 construct: host or cells: HEK-Blue cells
T3 sequence (Q9NR96 26-1032): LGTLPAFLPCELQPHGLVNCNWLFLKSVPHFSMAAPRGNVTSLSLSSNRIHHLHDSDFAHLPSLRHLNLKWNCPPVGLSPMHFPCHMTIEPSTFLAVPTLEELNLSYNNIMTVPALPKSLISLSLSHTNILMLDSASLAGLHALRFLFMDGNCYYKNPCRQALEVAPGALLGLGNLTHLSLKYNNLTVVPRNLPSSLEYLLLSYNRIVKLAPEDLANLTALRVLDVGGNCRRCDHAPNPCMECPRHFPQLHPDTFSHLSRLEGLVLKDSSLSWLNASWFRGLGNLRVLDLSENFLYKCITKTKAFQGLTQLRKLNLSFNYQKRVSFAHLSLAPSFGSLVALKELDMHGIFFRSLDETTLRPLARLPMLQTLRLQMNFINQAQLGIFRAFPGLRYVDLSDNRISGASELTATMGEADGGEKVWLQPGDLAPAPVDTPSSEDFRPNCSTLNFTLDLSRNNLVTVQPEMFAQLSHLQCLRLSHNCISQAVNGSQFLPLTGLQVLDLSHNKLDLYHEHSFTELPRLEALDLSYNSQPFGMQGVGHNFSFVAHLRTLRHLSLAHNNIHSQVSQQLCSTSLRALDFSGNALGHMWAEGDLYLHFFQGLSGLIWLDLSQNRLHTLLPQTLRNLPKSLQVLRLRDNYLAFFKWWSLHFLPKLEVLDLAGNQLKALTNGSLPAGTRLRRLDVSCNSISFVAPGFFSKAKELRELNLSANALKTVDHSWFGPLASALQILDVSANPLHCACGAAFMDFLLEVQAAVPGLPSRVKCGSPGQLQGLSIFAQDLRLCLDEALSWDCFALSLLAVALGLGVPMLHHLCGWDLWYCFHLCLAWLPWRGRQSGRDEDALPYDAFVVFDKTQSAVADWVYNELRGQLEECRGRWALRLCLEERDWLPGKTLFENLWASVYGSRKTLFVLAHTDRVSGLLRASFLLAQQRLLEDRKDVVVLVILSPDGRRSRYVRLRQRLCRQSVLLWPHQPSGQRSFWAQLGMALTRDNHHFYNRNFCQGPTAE
As to the kind of experiment: TLR9 inhibition reporter assay (HEK-Blue cells, SEAP reporter, ODN2006 stimulation). The settings on record: HEK-Blue cells overexpressing human TLR9, SEAP reporter, ODN2006 5 nM. The method, boiled down: as §1

Turning to `Cc1cc(-c2[nH]nc(-c3cnc(NC(C)C)cn3)c2C(C)C)cn2ncnc12` [Example 241], the IC50 against human TLR7 was 8.06 nM; at human TLR8, 3.19 nM; on human TLR9, more than 50000 nM.

`Cc1cc(-c2[nH]nc(C(=O)N[C@H]3CC[C@@H](NCC(C)(C)C)CC3)c2C(C)C)cn2ncnc12` [Example 89]: the IC50 amounted to 1.48 nM on human TLR7, 18.9 nM against human TLR8 and 4100 nM at human TLR9.

`Cc1cc(-c2[nH]nc(C(=O)NC3CCN(CC(C)(C)C)CC3)c2C(C)C)cn2ncnc12` [Example 74]: the IC50 against human TLR7 amounted to 0.71 nM; against human TLR8, 3.44 nM; on human TLR9, 1910 nM.

Take `Cc1cc(-c2[nH]nc(CNC3CCNCC3)c2C(C)C)cn2ncnc12` [Example 187]: the IC50 on human TLR7 was 10.4 nM; on human TLR8, 4.25 nM; on human TLR9, 8720 nM.

As for `Cc1cc(-c2[nH]nc(C(=O)NCC3CNC3)c2C(C)C)cn2ncnc12` [Example 49], the IC50 on human TLR7 stood at 0.97 nM; on human TLR8 it was 0.48 nM; against human TLR9, 9220 nM.

In the case of `COc1cc(-c2[nH]nc(-c3ccc(C4CN(C5COC5)C4)cc3)c2C(C)C)cn2ncnc12` [Example 332], the results for the concentration for half-maximal inhibition (IC50) on human TLR7, at human TLR8 and at human TLR9 were 16.9 nM, 1.91 nM and 10200 nM, respectively.

In the case of `Cc1cc(-c2[nH]nc(C(=O)NC3CCN(CCC(F)(F)F)CC3)c2C(C)C)cn2ncnc12` [Example 69, 4-isopropyl-5-(8-methyl-[1,2,4]triazolo[1,5-a]pyridin-6-yl)-N-(1-(3,3,3-trifluoropropyl)piperidin-4-yl)-1H-pyrazole-3-carboxamide], the IC50 was found to be 4.17 nM on human TLR7, 35.6 nM against human TLR8 and 6320 nM against human TLR9.

For the compound `Cc1cc(-c2[nH]nc(C(=O)N[C@H]3CC[C@@H](NCCCC(F)(F)F)CC3)c2C(C)C)cn2ncnc12` [Example 88], the IC50 was determined as 0.81 nM on human TLR7, 1.84 nM at human TLR8 and 4450 nM against human TLR9.

In the case of `Cc1cc(-c2[nH]nc(C(=O)N3CC(N(C)C)C3)c2C(C)C)cn2ncnc12` [Example 21], the IC50 on human TLR7 was 6.89 nM; against human TLR8 it was 39 nM; against human TLR9, more than 50000 nM.

As to `Cc1cc(-c2[nH]nc(C(=O)NC3CCN(C(C)C)CC3)c2C(C)C)cn2ccnc12` [Example 37], the IC50 on human TLR7 stood at 12.1 nM; against human TLR8, 27 nM; against human TLR9, 27900 nM.

With `CNC1CCC(NC(=O)c2n[nH]c(-c3cc(C)c4ncnn4c3)c2C(C)C)CC1` (stereo not drawn) [Example 129], the IC50 worked out at 1.34 nM against human TLR7, 7.36 nM at human TLR8 and 14400 nM at human TLR9.

Turning to `Cc1cc(-c2[nH]nc(C(=O)C(=O)NC3CCN(C(C)C)CC3)c2C(C)C)cn2ncnc12` [Example 183, 2-(4-isopropyl-5-(8-methyl-[1,2,4]triazolo[1,5-a]pyridin-6-yl)-1H-pyrazol-3-yl)-N-(1-isopropylpiperidin-4-yl)-2-oxoacetamide], the results for the IC50 against human TLR7, at human TLR8 and against human TLR9 were 8.89 nM, 9.41 nM and 6790 nM, respectively.

For the compound `Cc1cc(-c2[nH]nc(-c3ccc4c(c3)CCNC4)c2C(C)C)cc(C)n1` [Example 278, 6-(5-(2,6-dimethylpyridin-4-yl)-4-isopropyl-1H-pyrazol-3-yl)-1,2,3,4-tetrahydroisoquinoline], the IC50 is 1.43 nM at human TLR7, 0.33 nM against human TLR8 and 10800 nM on human TLR9.

In the case of `Cc1cc(-c2[nH]nc(C(=O)NC3CCNCC3)c2CC(F)(F)F)cn2ncnc12` [compound 194], the IC50 at human TLR7 worked out at 0.9 nM; on human TLR8, 0.37 nM; on human TLR9, 9220 nM.

As for `Cc1cc(-c2[nH]nc(-c3ccc(N4CCNCC4)cc3)c2C(C)C)cn2ncnc12` [Example 406], the IC50 on human TLR7 is 2.74 nM; at human TLR8, 142 nM; at human TLR9, more than 50000 nM.

As for `Cc1cc(-c2[nH]nc(C3CCC(N4CCC(N(C)C)CC4)CC3)c2C(C)C)cn2ncnc12` (single isomer, unassigned) [Example 293], the IC50 against human TLR7 was determined as 2.98 nM; against human TLR8, 0.38 nM; on human TLR9, 6650 nM.

Consider `Cc1cc(-c2[nH]nc(C3CCC(NCC4(C)COC4)CC3)c2C(C)C)cn2ncnc12` (single isomer, unassigned) [Example 281], for which the results for the half-inhibitory concentration (IC50) at human TLR7, against human TLR8 and against human TLR9 were 9.49 nM, 0.45 nM and 42600 nM, respectively.

Take `Cc1cc(-c2[nH]nc(C(=O)N[C@@H]3CCNC3)c2C(C)C)cn2ncnc12` [Example 50]: the IC50 turned out to be 1.27 nM against human TLR7, 2.74 nM at human TLR8 and 17300 nM at human TLR9.

In the case of `COc1c(C)c(-c2[nH]nc(-c3ccc(C4CCNCC4)cn3)c2C(C)C)cn2ncnc12` [Example 346], the values for the IC50 on human TLR7, on human TLR8 and at human TLR9 were 6.3 nM, 7.94 nM and 19200 nM, respectively.

Regarding `CCCN1CCc2nc(-c3n[nH]c(-c4cc(OC)c5ncnn5c4)c3C(C)C)sc2C1` [Example 260], the IC50 against human TLR7 is 170 nM; at human TLR8 it was 138 nM; at human TLR9, more than 50000 nM.
